Test results: patent US20230114728A1 (Venatorx Pharmaceuticals, Inc., priority 2019, published 2023)
≈ marks a conversion by molar mass, not a printed value.

Assays:
E. coli K12 PBP3 = target: T1, E. coli K12 PBP3 (Escherichia coli, UniProt P0AD68); experiment: biochemical; type: binding
T1 construct: made in house
Excerpt: (§1) Example I: Experimental Method for Penicillin-Binding Protein Binding Assays with Bocillin-FL Via Fluorescence Polarization
(§2) To determine the ability of boronic acid-based test PBP inhibitors to bind Penicillin Binding Proteins (PBPs), Bocillin-FL (fluorescently-labeled penicillin V; ThermoFisher Scientific) was used in a fluorescence polarization (FP) competition binding assay to assess inhibitor binding to PBP2, PBP3 or PBP4 from Escherichia coli (K12), PBP3 from Pseudomonas aeruginosa (PA01), PBP1a, PBP2 and PBP3 from Acinetobacter baumannii (ATCC 19606), and PBP2 from Neiserria gonorrheae (FA19). PBPs were cloned and purified as described previously (E. coli PBPs, King, D. T, et al., ACS Infectious Diseases 2015, 1, 175-184; P. aeruginosa PBP3, Han et. al., PNAS 2010, 107 (51), 22002-22007; A. baumannii PBPs, Penwell et. al., Antimicrob. Agents Chemother. 2015, 59 (3), 1680-1689; N. gonorrhoeae PBP2, Singh et. al., J Biol. Chem. 2019, 294 (38), 14020-14032). To establish assay conditions for competition binding, enzyme titration/saturation binding experiments were initially performed. Bocillin-FL was prepared at 0.2 μM in a buffer comprised of 50 mM Hepes (pH 8.0), 300 mM NaCl and 5% (v/v) glycerol for reactions with E. coli, P. aeruginosa and N. gonorrhoeae PBPs, and 25 mM Tris (pH 8.0), 200 mM NaCl and 10% (v/v) glycerol and 0.005% (v/v) Tween 20 for reactions with A. baumannii PBPs. Saturation binding was performed by mixing 40 μl of PBP solutions ranging in concentrations from 0-24 μM with 40 μl of the 0.2 μM Bocillin-FL solution, in individual wells of a black 384-well microplate. FP was measured immediately upon mixing (Excitation, 490 nm; Emission, 520 nm; g-factor, 0.96), using a Cytation3 (BioTek) microplate reader and measured continuously for up to 120 minutes. […] The competition binding assay (80 μl final volume) was validated using beta-lactams and PBPs at final concentrations of: 1.5 μM, E. coli PBP3; 0.75 μM, P. aeruginosa PBP3; 1 μM A. baumannii PBP1a; 2.5 μM A. baumannii PBP2; 0.2 μM A. baumannii PBP3; and […] N. gonorrhoeae PBP2. Bocillin-FL was at 0.1 μM (0.05 μM with A. baumannii PBP1a) and beta-lactam concentrations ranged from 0-1000 μM. […] Bocillin-FL was added and the FP immediately measured for up to 60 minutes (90 minutes for E. coli PBP2). […] The beta-lactam potency was reported as the concentration of beta-lactam required to reduce the amount of PBP bound-Bocillin-FL by 50% (EC50). […] Binding assays for boronic acid PBP inhibitors were performed in an identical fashion for the respective PBPs

P. aeruginosa PBP3 = target: T2, P. aeruginosa PBP3 (Pseudomonas aeruginosa, UniProt G3XD46); experiment: Bocillin-FL fluorescence polarization competition binding assay, P. aeruginosa PBP3; settings: fluorescence polarization competition binding assay using Bocillin-FL
T2 construct: made in house
Excerpt: as §1, §2

A. baumannii ATCC 19606 = experiment: Broth microdilution MIC in CAMHB; type: cell-based; settings: Acinetobacter baumannii, ATCC19606; MHB; read-out: Minimum Inhibitory Concentration, A. baumannii ATCC 19606
Experimental: (§3) Example III: In Vitro Antibacterial Assays
(§4) To determine the ability of test compounds to inhibit the growth of bacterial strains, classic cell based broth microdilution minimum inhibitory concentration (MIC) assays were employed. MIC assays are performed according to CLSI methods except where otherwise noted (CLSI, 2018 and CLSI, 2019). The reference type strain E. coli ATCC 25922; the wild-type parent strain E. coli AG100; the hyper-permeable E. coli 901C and E. coli D22; and the E. coli AG100A strain lacking the acrAB efflux pump encoding genes were used to determine the ability of the PBP inhibitors to penetrate the outer membrane of gram-negative bacteria and inhibit bacterial growth. […] The P. aeruginosa ATCC 27853 and A. baumannii ATCC 19606, along with the hyper-permeable P. aeruginosa ATCC 35151 and an engineered efflux pump-compromised strain of P. aeruginosa (ΔmexAB-oprM) were used to determine the ability of PBP inhibitors to penetrate the outer membrane of P. aeruginosa and A. baumannii and assess antibacterial activity against these important gram-negative organisms.
(§5) Briefly, cryo-preserved bacterial cultures of challenge strains are streaked for isolation on appropriate agar medium, in this case cation-adjusted Mueller Hinton agar. Following incubation to allow growth of the colonies, plates are sealed with parafilm and stored refrigerated for up to two weeks. For preparation of assay inoculum and to ensure low variability, at least 5 colonies are picked from the agar plates with an inoculating loop and aseptically transferred to a culture tube containing 3 mL of cation-adjusted Mueller Hinton broth (CAMHB). The broth culture is grown for 3-5 hours at 37° C. with shaking at 200 rpm. Meanwhile, 2-fold serial dilutions of test compounds are conducted in a 96-well plate with a final volume of 75 μL per well at 2-fold the final desired concentration. After the dilution plates are set up the growing cultures are then diluted in a cuvette containing CAMHB and the optical density is measured at 600 nm. The inoculum is diluted such that 75 μL of this culture in CAMHB results in a starting bacterial concentration of 2-8×10^5 CFU/mL when added to the dilution plates. The plates are incubated for 16-20 hours for Enterobacteriaceae and Pseudomonas and 20-24 hours for Acinetobacter at 37° C. The MIC values are read visually as the lowest concentration well with no bacterial growth.

E. coli 901C = experiment: Broth microdilution MIC in CAMHB; type: cell-based; settings: Escherichia coli; E. coli 901C (hyper-permeable); MHB; read-out: Minimum Inhibitory Concentration, E. coli 901C
Experimental: as §3, §4, §5

E. coli AG100A = experiment: Broth microdilution MIC in CAMHB; type: cell-based; settings: Escherichia coli, read-out: Minimum Inhibitory Concentration, E. coli AG100A
Experimental: as §3, §4, §5

E. coli AG100 = experiment: Broth microdilution MIC in CAMHB; type: cell-based; settings: Escherichia coli; E. coli AG100 (wild-type parent); MHB; read-out: Minimum Inhibitory Concentration, E. coli AG100
Experimental: as §3, §4, §5

E. coli ATCC 25922 = experiment: Broth microdilution MIC in CAMHB; type: cell-based; settings: Escherichia coli, ATCC25922; E. coli ATCC 25922; MHB; read-out: Minimum Inhibitory Concentration, E. coli 25922
Experimental: as §3, §4, §5

E. coli D22 = experiment: Broth microdilution MIC in CAMHB; type: cell-based; settings: Escherichia coli; E. coli D22 (hyper-permeable); MHB; read-out: Minimum Inhibitory Concentration, E. coli D22
Experimental: as §3, §4, §5

[1] = system: K. pneumoniae 848844 producing SHV-11 and KPC-2; experiment: Broth microdilution MIC in CAMHB; type: cell-based; settings: Klebsiella pneumoniae, read-out: Minimum Inhibitory Concentration, K. pneumoniae 848844
Experimental: as §3, §4, §5

[2] = system: K. pneumoniae SI-117 producing VIM-1; experiment: Broth microdilution MIC in CAMHB; type: cell-based; settings: Klebsiella pneumoniae, read-out: Minimum Inhibitory Concentration, K. pneumoniae SI-117
Experimental: as §3, §4, §5

[3] = system: K. pneumoniae UMM producing SHV-5 and KPC-2; experiment: Broth microdilution MIC in CAMHB; type: cell-based; settings: Klebsiella pneumoniae, read-out: Minimum Inhibitory Concentration, K. pneumoniae UMM
Experimental: as §3, §4, §5

[4] = system: P. aeruginosa (ΔmexAB-oprM); experiment: Broth microdilution MIC in CAMHB; type: cell-based; settings: Pseudomonas aeruginosa, read-out: Minimum Inhibitory Concentration, P. aeruginosa ΔmexAB-OprM
Experimental: as §3, §4, §5

P. aeruginosa ATCC 27853 = experiment: Broth microdilution MIC in CAMHB; type: cell-based; settings: Pseudomonas aeruginosa, ATCC27853; MHB; read-out: Minimum Inhibitory Concentration, P. aeruginosa ATCC 27853
Experimental: as §3, §4, §5

P. aeruginosa ATCC 35151 = experiment: Broth microdilution MIC in CAMHB; type: cell-based; settings: Pseudomonas aeruginosa, ATCC35151; MHB; hyper-permeable strain; read-out: Minimum Inhibitory Concentration, P. aeruginosa ATCC 35151
Experimental: as §3, §4, §5

T1 sequence (P0AD68 1-577): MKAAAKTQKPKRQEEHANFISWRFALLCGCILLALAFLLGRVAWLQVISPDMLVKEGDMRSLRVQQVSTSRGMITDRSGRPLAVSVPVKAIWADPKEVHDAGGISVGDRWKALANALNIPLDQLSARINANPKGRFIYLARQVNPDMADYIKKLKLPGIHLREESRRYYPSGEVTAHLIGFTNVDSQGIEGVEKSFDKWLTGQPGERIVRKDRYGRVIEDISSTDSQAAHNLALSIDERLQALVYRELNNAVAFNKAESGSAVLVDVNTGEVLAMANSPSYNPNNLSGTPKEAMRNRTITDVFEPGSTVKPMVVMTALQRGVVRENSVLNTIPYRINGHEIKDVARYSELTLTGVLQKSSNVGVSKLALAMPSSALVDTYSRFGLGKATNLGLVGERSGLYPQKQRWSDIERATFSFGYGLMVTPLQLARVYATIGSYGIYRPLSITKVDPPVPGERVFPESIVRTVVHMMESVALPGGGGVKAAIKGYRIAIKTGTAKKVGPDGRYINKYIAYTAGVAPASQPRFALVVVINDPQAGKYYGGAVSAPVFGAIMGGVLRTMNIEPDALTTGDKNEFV
T2 sequence (G3XD46 whole entry): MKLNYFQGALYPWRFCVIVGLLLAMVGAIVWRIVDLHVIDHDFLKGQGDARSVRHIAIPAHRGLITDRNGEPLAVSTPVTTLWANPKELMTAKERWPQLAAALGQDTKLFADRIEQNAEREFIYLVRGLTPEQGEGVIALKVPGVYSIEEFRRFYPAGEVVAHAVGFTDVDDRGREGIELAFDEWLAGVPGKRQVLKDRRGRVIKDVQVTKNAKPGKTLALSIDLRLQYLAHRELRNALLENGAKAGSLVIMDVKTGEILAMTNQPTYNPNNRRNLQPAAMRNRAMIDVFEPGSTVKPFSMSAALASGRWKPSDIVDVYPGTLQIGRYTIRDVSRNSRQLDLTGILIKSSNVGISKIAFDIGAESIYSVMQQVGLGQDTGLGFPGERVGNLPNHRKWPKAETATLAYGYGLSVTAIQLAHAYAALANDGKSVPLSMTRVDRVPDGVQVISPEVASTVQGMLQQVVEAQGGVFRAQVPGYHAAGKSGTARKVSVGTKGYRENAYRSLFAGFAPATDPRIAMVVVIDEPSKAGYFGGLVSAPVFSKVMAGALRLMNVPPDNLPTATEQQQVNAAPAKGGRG

| Compound | EC50 (E. coli K12 PBP3) [µM] | P. aeruginosa PBP3 Potency (P. aeruginosa PBP3) | MIC (A. baumannii ATCC 19606) [µg/mL] | MIC (E. coli 901C) [µg/mL] | MIC (E. coli AG100A) [µg/mL] | MIC (E. coli AG100) [µg/mL] | MIC (E. coli ATCC 25922) [µg/mL] | MIC (E. coli D22) [µg/mL] | MIC [1] [µg/mL] | MIC [2] [µg/mL] | MIC [3] [µg/mL] | MIC [4] [µg/mL] | MIC (P. aeruginosa ATCC 27853) [µg/mL] | MIC (P. aeruginosa ATCC 35151) [µg/mL] |
| --- | --- | --- | --- | --- | --- | --- | --- | --- | --- | --- | --- | --- | --- | --- |
| O=C(O)c1cccc2c1OB(O)[C@@H](NC(=O)[C@H](NC(=O)N1CCN(CC(F)(F)F)C(=O)C1=O)c1c(F)cc(O)cc1F)C2 (single isomer, unassigned) [Example 215] | < 30 | C (C represents a potency between 10 and 30 μM) | > 128 | < 0.25 | 2 to 4 (≈ 3.26 to 6.51 µM) | 32 to 64 (≈ 52.1 to 104 µM) | 32 to 64 (≈ 52.1 to 104 µM) | 2 to 4 (≈ 3.26 to 6.51 µM) | > 128 | 32 to 64 (≈ 52.1 to 104 µM) | 32 to 64 (≈ 52.1 to 104 µM) | 32 to 64 (≈ 52.1 to 104 µM) | > 128 | 8 to 16 (≈ 13 to 26 µM) |
| NS(=O)(=O)Nc1cccc([C@H](NC(=O)N2CCN(CC(F)(F)F)C(=O)C2=O)C(=O)N[C@H]2Cc3cccc(C(=O)O)c3OB2O)c1 (single isomer, unassigned) [Example 216] | 30 to 500 | C (C represents a potency between 10 and 30 μM) | > 128 | 2 to 4 (≈ 3.05 to 6.09 µM) | 32 to 64 (≈ 48.8 to 97.5 µM) | > 128 | > 128 | 8 to 16 (≈ 12.2 to 24.4 µM) | > 128 | > 128 | > 128 | 32 to 64 (≈ 48.8 to 97.5 µM) | > 128 | 8 to 16 (≈ 12.2 to 24.4 µM) |
| NS(=O)(=O)Nc1cccc([C@@H](NC(=O)N2CCN(CC(F)(F)F)C(=O)C2=O)C(=O)N[C@H]2Cc3cccc(C(=O)O)c3OB2O)c1 (single isomer, unassigned) [Example 217] | < 30 | D (D represents a potency <10 μM) | > 128 | 0.5 to 1 (≈ 0.762 to 1.52 µM) | 8 to 16 (≈ 12.2 to 24.4 µM) | 32 to 64 (≈ 48.8 to 97.5 µM) | 32 to 64 (≈ 48.8 to 97.5 µM) | 2 to 4 (≈ 3.05 to 6.09 µM) | > 128 | > 128 | 32 to 64 (≈ 48.8 to 97.5 µM) | 8 to 16 (≈ 12.2 to 24.4 µM) | > 128 | 2 to 4 (≈ 3.05 to 6.09 µM) |
